Measured values taken from patent US10695337B2, “Piperidin-4-yl azetidine derivatives as JAK1 inhibitors” (Incyte Corporation, priority 2010, dated 2020).

Biological target: human JAK1 (a.a. 837-1142)
Experiment: In vitro JAK kinase assay (HTRF, phosphorylation of a biotinylated peptide), JAK1
Type: biochemical
Details: measured at 1 mM ATP; JAK2 IC50 / JAK1 IC50
Experimental: Compounds herein were tested for inhibitory activity of JAK targets according to the following in vitro assay described in Park et al., Analytical Biochemistry 1999, 269, 94-104. The catalytic domains of human JAK1 (a.a. 837-1142), Jak2 (a.a. 828-1132) and Jak3 (a.a. 781-1124) with an N-terminal His tag were expressed using baculovirus in insect cells and purified. The catalytic activity of JAK1, JAK2 or JAK3 was assayed by measuring the phosphorylation of a biotinylated peptide. The phosphorylated peptide was detected by homogenous time resolved fluorescence (HTRF). […] Reactions were carried out at room temperature for 1 hr and then stopped with 20 μL 45 mM EDTA, 300 nM SA-APC, 6 nM Eu-Py20 in assay buffer (Perkin Elmer, Boston, Mass.). Binding to the Europium labeled antibody took place for 40 minutes and HTRF signal was measured on a Fusion plate reader (Perkin Elmer, Boston, Mass.).

Row | IC50 Ratio JAK2/JAK1 | Structure (SMILES)
1 | 11.0 | N#CCC1(n2cc(-c3ncnc4[nH]ccc34)cn2)CN(C2CCN(C(=O)c3cc(F)cc(F)c3)CC2)C1 [Example 3, {1-[1-(3,5-difluorobenzoyl)piperidin-4-yl]-3-[4-(7H-pyrrolo[2,3-d]pyrimidin-4-yl)-1H-pyrazol-1-yl]azetidin-3-yl}acetonitrile]
2 | 12.0 | COc1ccc(C(=O)N2CCC(N3CC(CC#N)(n4cc(-c5ncnc6[nH]ccc56)cn4)C3)CC2)cc1F [Example 5, {1-[1-(3-fluoro-4-methoxybenzoyl)piperidin-4-yl]-3-[4-(7H-pyrrolo[2,3-d]pyrimidin-4-yl)-1H-pyrazol-1-yl]azetidin-3-yl}acetonitrile]
3 | 5.3 | N#CCC1(n2cc(-c3ncnc4[nH]ccc34)cn2)CN(C2CCN(C(=O)c3cccc(Cl)n3)CC2)C1 [Example 13, {1-{1-[(6-chloropyridin-2-yl)carbonyl]piperidin-4-yl}-3-[4-(7H-pyrrolo[2,3-d]pyrimidin-4-yl)-1H-pyrazol-1-yl]azetidin-3-yl}acetonitrile]
4 | 5.3 | N#CCC1(n2cc(-c3ncnc4[nH]ccc34)cn2)CN(C2CCN(C(=O)c3ccsc3)CC2)C1 [Example 15, {3-[4-(7H-pyrrolo[2,3-d]pyrimidin-4-yl)-1H-pyrazol-1-yl]-1-[1-(3-thienylcarbonyl)piperidin-4-yl]azetidin-3-yl}acetonitrile]
5 | 4.2 | N#CCC1(n2cc(-c3ncnc4[nH]ccc34)cn2)CN(C2CCN(C(=O)c3cccc(Br)c3)CC2)C1 [Example 20, {1-[1-(3-bromobenzoyl)piperidin-4-yl]-3-[4-(7H-pyrrolo[2,3-d]pyrimidin-4-yl)-1H-pyrazol-1-yl]azetidin-3-yl}acetonitrile]
6 | 6.7 | N#CCC1(n2cc(-c3ncnc4[nH]ccc34)cn2)CN(C2CCN(C(=O)c3cc(F)cc(C(F)(F)F)c3)CC2)C1 [Example 23, {1-{1-[3-fluoro-5-(trifluoromethyl)benzoyl]piperidin-4-yl}-3-[4-(7H-pyrrolo[2,3-d]pyrimidin-4-yl)-1H-pyrazol-1-yl]azetidin-3-yl}acetonitrile]
7 | 6.6 | N#CCC1(n2cc(-c3ncnc4[nH]ccc34)cn2)CN(C2CCN(C(=O)c3cc(Cl)cc(Cl)c3)CC2)C1 [Example 24, {1-[1-(3,5-dichlorobenzoyl)piperidin-4-yl]-3-[4-(7H-pyrrolo[2,3-d]pyrimidin-4-yl)-1H-pyrazol-1-yl]azetidin-3-yl}acetonitrile]
8 | 5.8 | N#CCC1(n2cc(-c3ncnc4[nH]ccc34)cn2)CN(C2CCN(C(=O)c3cccc(F)c3)CC2)C1 [Example 25, {1-[1-(3-fluorobenzoyl)piperidin-4-yl]-3-[4-(7H-pyrrolo[2,3-d]pyrimidin-4-yl)-1H-pyrazol-1-yl]azetidin-3-yl}acetonitrile]
9 | 3.3 | COc1cc(C(=O)N2CCC(N3CC(CC#N)(n4cc(-c5ncnc6[nH]ccc56)cn4)C3)CC2)ccc1F [Example 26, {1-[1-(4-fluoro-3-methoxybenzoyl)piperidin-4-yl]-3-[4-(7H-pyrrolo[2,3-d]pyrimidin-4-yl)-1H-pyrazol-1-yl]azetidin-3-yl}acetonitrile]
10 | 8.5 | N#CCC1(n2cc(-c3ncnc4[nH]ccc34)cn2)CN(C2CCN(C(=O)c3cc(F)cc(Cl)c3)CC2)C1 [Example 28, {1-[1-(3-chloro-5-fluorobenzoyl)piperidin-4-yl]-3-[4-(7H-pyrrolo[2,3-d]pyrimidin-4-yl)-1H-pyrazol-1-yl]azetidin-3-yl}acetonitrile]

More lines, now with the values behind:

Row | Structure (SMILES) | IC50 Ratio JAK2/JAK1
11 | CC1CC(N2CC(CC#N)(n3cc(-c4ncnc5[nH]ccc45)cn3)C2)CCN1Cc1c(F)cccc1Cl (single isomer, unassigned) [Example 244, {1-[1-(2-chloro-6-fluorobenzyl)-2-methylpiperidin-4-yl]-3-[4-(7H-pyrrolo[2,3-d]pyrimidin-4-yl)-1H-pyrazol-1-yl]azetidin-3-yl}acetonitrile] | 1.8
12 | N#CCC1(n2cc(-c3ncnc4[nH]ccc34)cn2)CN(C2CCN(C(=O)C3CCCCC3)CC2)C1 [Example 8, {1-[1-(cyclohexylcarbonyl)piperidin-4-yl]-3-[4-(7H-pyrrolo[2,3-d]pyrimidin-4-yl)-1H-pyrazol-1-yl]azetidin-3-yl}acetonitrile] | 11.0
13 | N#CCC1(n2cc(-c3ncnc4[nH]ccc34)cn2)CN(C2CCN(C(=O)c3ccccc3)CC2)C1 [Example 9, {1-(1-benzoylpiperidin-4-yl)-3-[4-(7H-pyrrolo[2,3-d]pyrimidin-4-yl)-1H-pyrazol-1-yl]azetidin-3-yl}acetonitrile] | 3.2
14 | N#CCC1(n2cc(-c3ncnc4[nH]ccc34)cn2)CN(C2CCN(C(=O)c3ccccc3C#N)CC2)C1 [Example 10, 2-[(4-{3-(cyanomethyl)-3-[4-(7H-pyrrolo[2,3-d]pyrimidin-4-yl)-1H-pyrazol-1-yl]azetidin-1-yl}piperidin-1-yl)carbonyl]benzonitrile] | 4.4
15 | N#CCC1(n2cc(-c3ncnc4[nH]ccc34)cn2)CN(C2CCN(C(=O)c3cccc(C#N)c3)CC2)C1 [Example 11, 3-[(4-{3-(cyanomethyl)-3-[4-(7H-pyrrolo[2,3-d]pyrimidin-4-yl)-1H-pyrazol-1-yl]azetidin-1-yl}piperidin-1-yl)carbonyl]benzonitrile] | 7.2
16 | N#CCC1(n2cc(-c3ncnc4[nH]ccc34)cn2)CN(C2CCN(C(=O)c3ccc(C#N)cc3)CC2)C1 [Example 12, 4-[(4-{3-(cyanomethyl)-3-[4-(7H-pyrrolo[2,3-d]pyrimidin-4-yl)-1H-pyrazol-1-yl]azetidin-1-yl}piperidin-1-yl)carbonyl]benzonitrile] | 5.2
17 | N#CCC1(n2cc(-c3ncnc4[nH]ccc34)cn2)CN(C2CCN(C(=O)c3cnccn3)CC2)C1 [Example 14, {1-[1-(pyrazin-2-lcarbonyl)piperidin-4-yl]-3-[4-(7H-pyrrolo[2,3-d]pyrimidin-4-yl)-1H-pyrazol-1-yl]azetidin-3-l}acetonitrile] | 3.2
18 | N#CCC1(n2cc(-c3ncnc4[nH]ccc34)cn2)CN(C2CCN(C(=O)c3ncco3)CC2)C1 [Example 16, {1-[1-(1,3-oxazol-2-ylcarbonyl)piperidin-4-yl]-3-[4-(7H-pyrrolo[2,3-d]pyrimidin-4-yl)-1H-pyrazol-1-yl]azetidin-3-yl}acetonitrile] | 2.5
19 | N#CCC1(n2cc(-c3ncnc4[nH]ccc34)cn2)CN(C2CCN(C(=O)c3cccc(OC(F)(F)F)c3)CC2)C1 [Example 21, (3-[4-(7H-pyrrolo[2,3-d]pyrimidin-4-yl)-1H-pyrazol-1-yl]-1-{1-[3-(trifluoromethoxy)benzoyl]piperidin-4-yl}azetidin-3-yl)acetonitrile] | 3.2
20 | N#CCC1(n2cc(-c3ncnc4[nH]ccc34)cn2)CN(C2CCN(C(=O)c3cccc(C(F)(F)F)c3)CC2)C1 [Example 22, (3-[4-(7H-pyrrolo[2,3-d]pyrimidin-4-yl)-1H-pyrazol-1-yl]-1-{1-[3-(trifluoromethyl)benzoyl]piperidin-4-yl}azetidin-3-yl)acetonitrile] | 3.2
21 | COc1ccc(F)c(C(=O)N2CCC(N3CC(CC#N)(n4cc(-c5ncnc6[nH]ccc56)cn4)C3)CC2)c1 [Example 27, {1-[1-(2-fluoro-5-methoxybenzoyl)piperidin-4-yl]-3-[4-(7H-pyrrolo[2,3-d]pyrimidin-4-yl)-1H-pyrazol-1-yl]azetidin-3-yl}acetonitrile] | 5.1
